Laboratory results as given in ChEMBL document CHEMBL6109120, “Discovery of Novel SIK2/3 Inhibitors for the Potential Treatment of MEF2C+ Acute Myeloid Leukemia (AML)” (J Med Chem, 2025).

Assays:
[1] = biological target: Mast/stem cell growth factor receptor Kit (Homo sapiens, UniProt P10721); test: Binding affinity to human KIT by KINOMEscan assay
[2] = biological target: Tyrosine-protein kinase Lck (Homo sapiens, UniProt P06239); test: Binding affinity to human LCK by KINOMEscan assay
[3] = biological target: T1, Cytochrome P450 1A2 (Homo sapiens, UniProt P05177); test: Inhibition of CYP1A2 in human liver microsomes assessed as Phenacetin O-deethylation reaction measured after 30 mins by LC/MS/MS analysis; format: ADME, Microsome
T1 sequence (P05177 whole entry): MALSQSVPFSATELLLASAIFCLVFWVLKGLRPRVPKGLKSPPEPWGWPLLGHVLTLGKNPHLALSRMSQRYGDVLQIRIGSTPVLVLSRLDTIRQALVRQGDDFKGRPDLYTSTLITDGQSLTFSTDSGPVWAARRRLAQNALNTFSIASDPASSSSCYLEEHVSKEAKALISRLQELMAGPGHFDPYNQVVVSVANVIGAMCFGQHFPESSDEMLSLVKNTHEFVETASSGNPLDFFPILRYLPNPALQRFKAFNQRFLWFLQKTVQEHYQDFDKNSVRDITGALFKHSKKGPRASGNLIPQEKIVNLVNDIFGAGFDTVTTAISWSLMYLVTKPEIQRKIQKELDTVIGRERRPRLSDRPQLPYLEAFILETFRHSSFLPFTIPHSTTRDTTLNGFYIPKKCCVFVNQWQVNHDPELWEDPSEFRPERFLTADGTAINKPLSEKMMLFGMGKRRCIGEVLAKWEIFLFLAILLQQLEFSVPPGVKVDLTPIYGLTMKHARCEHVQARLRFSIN

[4] = biological target: Voltage-gated inwardly rectifying potassium channel KCNH2 (Homo sapiens, UniProt Q12809); test: Inhibition of hERG expressed in HEK cells assessed as K+ tail current by whole-cell electrophysiology; format: toxicity, cell-based
Sequence of Voltage-gated inwardly rectifying potassium channel KCNH2 (Q12809 whole entry): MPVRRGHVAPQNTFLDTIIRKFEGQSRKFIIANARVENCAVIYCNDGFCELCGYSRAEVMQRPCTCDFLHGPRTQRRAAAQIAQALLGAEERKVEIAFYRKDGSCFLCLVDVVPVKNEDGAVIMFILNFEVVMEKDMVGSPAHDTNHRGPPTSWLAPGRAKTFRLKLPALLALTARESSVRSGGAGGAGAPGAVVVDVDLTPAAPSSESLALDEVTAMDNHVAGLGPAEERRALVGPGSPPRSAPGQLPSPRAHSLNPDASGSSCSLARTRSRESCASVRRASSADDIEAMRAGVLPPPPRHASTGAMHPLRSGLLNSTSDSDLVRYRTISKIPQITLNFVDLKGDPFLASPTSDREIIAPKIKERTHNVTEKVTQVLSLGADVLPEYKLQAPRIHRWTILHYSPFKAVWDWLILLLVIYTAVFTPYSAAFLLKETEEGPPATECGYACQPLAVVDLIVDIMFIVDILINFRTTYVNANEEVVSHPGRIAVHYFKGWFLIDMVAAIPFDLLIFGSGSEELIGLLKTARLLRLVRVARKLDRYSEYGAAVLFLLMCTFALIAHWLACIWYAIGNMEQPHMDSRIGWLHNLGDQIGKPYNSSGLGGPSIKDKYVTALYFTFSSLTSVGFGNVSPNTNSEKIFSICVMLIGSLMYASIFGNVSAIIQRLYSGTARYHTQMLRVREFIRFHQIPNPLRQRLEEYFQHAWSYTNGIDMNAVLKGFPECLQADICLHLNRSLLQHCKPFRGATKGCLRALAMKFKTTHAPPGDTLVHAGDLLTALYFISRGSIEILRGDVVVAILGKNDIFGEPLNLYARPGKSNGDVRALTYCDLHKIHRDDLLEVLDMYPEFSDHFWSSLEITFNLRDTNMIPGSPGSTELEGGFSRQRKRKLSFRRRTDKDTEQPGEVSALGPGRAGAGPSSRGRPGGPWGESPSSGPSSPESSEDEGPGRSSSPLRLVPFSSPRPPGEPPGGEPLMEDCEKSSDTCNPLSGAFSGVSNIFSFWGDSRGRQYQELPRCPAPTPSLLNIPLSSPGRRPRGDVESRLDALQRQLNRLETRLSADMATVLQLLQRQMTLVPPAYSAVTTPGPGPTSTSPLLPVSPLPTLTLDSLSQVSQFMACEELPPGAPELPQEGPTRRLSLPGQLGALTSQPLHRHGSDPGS

[5] = biological target: T2, Serine/threonine-protein kinase ULK2 (Homo sapiens, UniProt Q8IYT8)
T2 sequence (Q8IYT8 whole entry): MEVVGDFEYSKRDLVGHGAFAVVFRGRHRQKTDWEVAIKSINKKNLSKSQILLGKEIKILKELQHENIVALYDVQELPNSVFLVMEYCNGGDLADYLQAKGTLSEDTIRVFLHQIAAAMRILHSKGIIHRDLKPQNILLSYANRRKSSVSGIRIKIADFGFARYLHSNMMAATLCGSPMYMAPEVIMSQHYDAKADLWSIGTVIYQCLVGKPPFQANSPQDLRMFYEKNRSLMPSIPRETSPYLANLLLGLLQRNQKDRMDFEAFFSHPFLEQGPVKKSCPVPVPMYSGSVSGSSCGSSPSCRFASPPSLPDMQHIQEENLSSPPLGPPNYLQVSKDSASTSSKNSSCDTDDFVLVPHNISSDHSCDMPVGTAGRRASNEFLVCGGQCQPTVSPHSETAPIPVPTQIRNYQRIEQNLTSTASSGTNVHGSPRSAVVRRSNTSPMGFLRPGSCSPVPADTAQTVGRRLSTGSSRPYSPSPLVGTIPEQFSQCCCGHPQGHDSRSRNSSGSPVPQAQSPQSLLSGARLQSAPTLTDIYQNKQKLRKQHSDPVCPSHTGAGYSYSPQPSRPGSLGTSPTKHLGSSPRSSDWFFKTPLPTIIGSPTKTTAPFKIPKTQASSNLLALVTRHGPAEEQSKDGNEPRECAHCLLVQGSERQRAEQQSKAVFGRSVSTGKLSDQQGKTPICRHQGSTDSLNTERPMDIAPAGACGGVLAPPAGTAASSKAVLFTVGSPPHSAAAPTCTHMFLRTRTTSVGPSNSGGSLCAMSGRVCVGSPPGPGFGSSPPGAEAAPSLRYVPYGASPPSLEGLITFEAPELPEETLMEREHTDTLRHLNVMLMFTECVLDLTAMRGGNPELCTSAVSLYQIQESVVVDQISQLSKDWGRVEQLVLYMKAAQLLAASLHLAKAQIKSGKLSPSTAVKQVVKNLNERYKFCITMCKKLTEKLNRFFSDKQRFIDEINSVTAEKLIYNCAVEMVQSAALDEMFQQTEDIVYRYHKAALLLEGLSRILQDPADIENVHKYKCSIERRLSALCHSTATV
Description: Binding affinity to human ULK2 by KINOMEscan assay

Sequence of Tyrosine-protein kinase Lck (P06239 whole entry): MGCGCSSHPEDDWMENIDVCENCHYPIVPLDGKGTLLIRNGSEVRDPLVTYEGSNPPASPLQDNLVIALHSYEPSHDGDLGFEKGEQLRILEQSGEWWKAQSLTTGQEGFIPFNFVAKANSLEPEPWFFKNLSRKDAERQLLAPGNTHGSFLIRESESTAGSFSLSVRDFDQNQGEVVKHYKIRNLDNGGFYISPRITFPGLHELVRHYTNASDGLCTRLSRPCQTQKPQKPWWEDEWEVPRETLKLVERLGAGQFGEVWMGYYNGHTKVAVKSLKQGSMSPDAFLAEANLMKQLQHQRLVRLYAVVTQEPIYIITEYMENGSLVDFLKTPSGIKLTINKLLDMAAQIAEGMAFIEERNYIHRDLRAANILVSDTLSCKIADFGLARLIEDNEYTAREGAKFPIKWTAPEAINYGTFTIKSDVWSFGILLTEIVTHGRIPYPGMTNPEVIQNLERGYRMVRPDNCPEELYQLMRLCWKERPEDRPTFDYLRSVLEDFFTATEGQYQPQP
Sequence of Mast/stem cell growth factor receptor Kit (P10721 whole entry): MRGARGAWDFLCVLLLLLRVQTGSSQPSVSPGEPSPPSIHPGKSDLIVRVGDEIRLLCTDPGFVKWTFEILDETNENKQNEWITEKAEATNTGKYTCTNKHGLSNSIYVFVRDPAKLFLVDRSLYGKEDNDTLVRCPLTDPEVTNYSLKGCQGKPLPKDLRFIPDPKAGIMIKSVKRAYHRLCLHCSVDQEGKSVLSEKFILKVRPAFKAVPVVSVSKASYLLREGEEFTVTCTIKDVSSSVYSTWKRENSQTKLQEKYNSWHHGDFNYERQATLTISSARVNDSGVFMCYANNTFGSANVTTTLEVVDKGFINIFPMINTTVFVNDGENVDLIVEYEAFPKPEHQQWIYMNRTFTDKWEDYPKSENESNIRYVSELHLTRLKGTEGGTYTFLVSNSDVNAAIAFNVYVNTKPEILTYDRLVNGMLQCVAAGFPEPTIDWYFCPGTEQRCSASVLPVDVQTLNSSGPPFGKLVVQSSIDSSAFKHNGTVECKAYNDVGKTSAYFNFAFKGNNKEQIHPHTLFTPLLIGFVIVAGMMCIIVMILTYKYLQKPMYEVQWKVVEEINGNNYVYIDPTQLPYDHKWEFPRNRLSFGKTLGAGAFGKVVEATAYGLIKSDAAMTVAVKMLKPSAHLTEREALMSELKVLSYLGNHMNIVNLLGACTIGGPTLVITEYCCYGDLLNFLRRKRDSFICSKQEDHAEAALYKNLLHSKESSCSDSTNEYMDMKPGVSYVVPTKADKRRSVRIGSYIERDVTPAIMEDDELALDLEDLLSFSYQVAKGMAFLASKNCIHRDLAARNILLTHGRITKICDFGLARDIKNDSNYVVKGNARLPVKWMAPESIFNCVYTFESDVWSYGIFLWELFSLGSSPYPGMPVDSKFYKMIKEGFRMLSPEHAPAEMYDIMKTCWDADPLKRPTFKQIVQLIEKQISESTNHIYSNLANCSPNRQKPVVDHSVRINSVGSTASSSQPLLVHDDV

IC50 [1]: 594 nM
IC50 [2]: 326 nM
IC50 [3]: > 50000 nM
IC50 [5]: 2080 nM
SMILES: COc1nc(-c2cc(-c3cnn(C)c3)cnc2N)cc2c1C(=O)N(CC(F)(F)F)CC2
inhibition (INH) [4]: 34%
